From patent US20240270753A1, “HETEROCYCLIC COMPOUND FOR INHIBITING SHP2 ACTIVITY, PREPARATION METHOD THEREFOR AND USE THEREOF” (SHANGHAI INSTITUTE OF MATERIA MEDICA, CHINESE ACADEMY OF …, priority 2021, published 2024)

Assays:
[1] = system: MV4-11 cells; assay: MV4-11 cell proliferation inhibition assay (MTS); type: cell-based; conditions: MTS read on the third day
Description: (a) SHP099 and TNO155 were used as positive controls.
(b) MV4-11 cells (10,000 cells/well) were seeded in a 96-well culture plate with 100 μL/well of the culture medium (IMDM supplemented with 10% fetal bovine serum (FBS), from Gibco company), and cultured for 6 hours. The compounds formulated in different concentrations of the present invention were added. On the third day, 20 μL of MTS reagent (purchased from Promega Company) was added to each well, and the absorbance value was detected according to the reagent instructions (Promega Company). The IC50 of the inhibitory activity of the compounds of the present invention against the MV4-11 cell proliferation is shown in Table 2.

[2] = system: p-ERK 1/2 (Thr202/Tyr204) in MIAPaca-2 cells; assay: Cell protein kinase (p-ERK) phosphorylation inhibition, AlphaLISA; type: cell-based; conditions: treated for 2 hours
Description: The inhibition of the phosphorylation level of intracellular protein kinase (ERK) by a compound was detected by AlphaLISA method. The first step was to treat the cells with the compound. The compound to be tested was first diluted 5-fold with 100% DMSO, and a gradient including a total of 9 different concentrations was set; then MIAPaca-2 cells were inoculated into a 96-well plate at a density of 40,000 cells per well, with a volume of 80 μL per well; then 20 μL of DMSO or the compound to be tested with different concentrations was added to each well, with 2 replicates for each concentration, and the final concentration of DMSO was controlled at 0.5%. The second step was to lyse the cells. After the cells were treated for 2 hours, the culture medium was removed, and the cells were washed three times with a HBSS solution. 50 μL of a freshly prepared lysis buffer was added to each well, shaken, and left at room temperature for 10 minutes. […] 10 μL of the above lysate was put into a 384-well plate (Perkin Elmer, 6005350), and the phosphorylation level of the extracellular signal-regulated kinase in the sample was detected according to the manufacturer's instructions. Signals were read using the AlphaScreen detector on an Envision multifunctional microplate reader (PerkinElmer). The inhibition (%) was calculated by the following equation: […]

C[C@@H]1OCC2(CCN(c3cnc(Sc4ccnc(N)c4Cl)c(N)n3)CC2)[C@@H]1N [TNO155]
IC50 [1]: 0.118 ± 0.0058 µM
IC50 [2]: 0.03 µM

CC1(N)CCN(c2cnc(-c3cccc(Cl)c3Cl)c(N)n2)CC1 [SHP099]
IC50 [1]: 0.883 ± 0.105 µM
